Here are results for 4 molecules from ChEMBL document CHEMBL4610105, “Microketides A and B, Polyketides from a Gorgonian-Derived Microsphaeropsis sp. Fungus” (J Nat Prod, 2020).

One test concerns Shigella dysenteriae. In words: Antibacterial activity against Shigella dysenteriae assessed as reduction in microbial growth after 18 hrs by MTT based broth dilution method. The class given is functional.
The next test deals with Nocardia brasiliensis. In words: Antibacterial activity against Nocardia brasiliensis assessed as reduction in microbial growth after 18 hrs by MTT based broth dilution method. The test is classed as functional.
Another test deals with Proteus vulgaris. In words: Antibacterial activity against Proteus vulgaris assessed as reduction in microbial growth after 18 hrs by MTT based broth dilution method. The class given is functional.
The next test deals with Tetraselmis helgolandica. In words: Anti-phytoplankton activity against Platymonas helgolandica after 96 hrs by fluorometric method. The test is classed as functional, organism-based.
A further test deals with Candida albicans. In words: Antifungal activity against Candida albicans assessed as reduction in microbial growth. The test is classed as functional.
Another test deals with Vibrio parahaemolyticus. In words: Antibacterial activity against Vibrio parahaemolyticus assessed as reduction in microbial growth after 18 hrs by MTT based broth dilution method. The test is classed as functional.
The test system of a further test is Pseudomonas aeruginosa. In words: Antibacterial activity against Pseudomonas aeruginosa assessed as reduction in microbial growth after 18 hrs by MTT based broth dilution method. The class given is functional.
A further test concerns Karenia mikimotoi. In words: Anti-phytoplankton activity against Karenia mikimotoi after 96 hrs by fluorometric method. The test is classed as functional, organism-based.
For another test, the system named is Escherichia coli. In words: Antibacterial activity against Escherichia coli assessed as reduction in microbial growth after 18 hrs by MTT based broth dilution method. The test is classed as functional.
The next test deals with Klebsiella aerogenes. In words: Antibacterial activity against Enterobacter aerogenes assessed as reduction in microbial growth after 18 hrs by MTT based broth dilution method. The test is classed as functional.
In another test the test system is Isochrysis galbana. As to the kind of experiment: Anti-phytoplankton activity against Isochrysis galbana after 96 hrs by fluorometric method. The test is classed as functional, organism-based.
For the next test, the system named is Bacillus anthracis. As to the kind of experiment: Antibacterial activity against Bacillus anthracis assessed as reduction in microbial growth after 18 hrs by MTT based broth dilution method. The class given is functional.
The test system of test [1] is Salmonella enterica subsp. enterica serovar Paratyphi B. In words: Antibacterial activity against Salmonella paratyphi B assessed as reduction in microbial growth after 18 hrs by MTT based broth dilution method. The class given is functional.
The subject of the next test is Bacillus subtilis. In words: Antibacterial activity against Bacillus subtilis assessed as reduction in microbial growth after 18 hrs by MTT based broth dilution method. The test is classed as functional.
The subject of another test is Salmonella typhi. As to the kind of experiment: Antibacterial activity against Salmonella typhi assessed as reduction in microbial growth after 18 hrs by MTT based broth dilution method. The class given is functional, Salmonella enterica subsp. enterica serovar Typhi. The conditions noted are these: Salmonella enterica.
The subject of the next test is Heterosigma akashiwo. As to the kind of experiment: Anti-phytoplankton activity against Heterosigma akashiwo after 96 hrs by fluorometric method. The class given is functional, organism-based.
Another test has as its system Priestia megaterium. As to the kind of experiment: Antibacterial activity against Bacillus megaterium assessed as reduction in microbial growth after 18 hrs by MTT based broth dilution method. The test is classed as functional.
The subject of the next test is Bacillus cereus. In words: Antibacterial activity against Bacillus cereus assessed as reduction in microbial growth after 18 hrs by MTT based broth dilution method. The test is classed as functional.
Test [2] in a line: Antifungal activity against Gloeosporium musarum assessed as reduction in microbial growth. The class given is functional.
For the next test, the system named is Pestalotiopsis calabae. As to the kind of experiment: Antifungal activity against Pestalotia calabae assessed as reduction in microbial growth. The test is classed as functional.
Another test concerns Colletotrichum truncatum. In words: Antifungal activity against Colletotrichum truncatum assessed as reduction in microbial growth. The class given is functional.
The next test deals with Kocuria rhizophila. In words: Antibacterial activity against Kocuria rhizophila assessed as reduction in microbial growth after 18 hrs by MTT based broth dilution method. The test is classed as functional.
The next test deals with Micrococcus luteus. As to the kind of experiment: Antibacterial activity against Micrococcus lysodeikticus assessed as reduction in microbial growth after 18 hrs by MTT based broth dilution method. The test is classed as functional.

Converted amounts (≈) assume the structure as drawn. Some results are limits rather than exact numbers.

On to `CC1=C(Cc2c(C)cccc2O)C(=O)[C@@](C)(O)[C@@H](O)C1`, for which the MIC with Shigella dysenteriae was found to be 3.13 µg/mL; in the test with Nocardia brasiliensis, 0.19 µg/mL; in the test on Proteus vulgaris, 0.39 µg/mL; in the test on Candida albicans it was 1.56 µg/mL; in the test on Vibrio parahaemolyticus, 0.39 µg/mL; in the test on Pseudomonas aeruginosa, 0.19 µg/mL. In addition, the minimum inhibitory concentration (MIC) with Escherichia coli is 1.56 µg/mL; in the test with Klebsiella aerogenes it was 0.19 µg/mL; with Bacillus anthracis, 0.19 µg/mL; in test [1] it was 0.19 µg/mL; in the test with Bacillus subtilis it was 0.19 µg/mL; with Salmonella typhi, 0.19 µg/mL. Also, the MIC in the test on Priestia megaterium turned out to be 0.19 µg/mL; in the test on Bacillus cereus it was 0.19 µg/mL; in [2], 3.13 µg/mL; in the test on Pestalotiopsis calabae it was 1.56 µg/mL; in the test on Colletotrichum truncatum, 1.56 µg/mL; in the test with Kocuria rhizophila, 0.19 µg/mL. The MIC in the test on Micrococcus luteus amounted to 0.39 µg/mL. The EC50 with Tetraselmis helgolandica was 12.3 µg/mL (≈ 44.5 µM); with Karenia mikimotoi, > 50 µg/mL; with Isochrysis galbana, > 50 µg/mL; in the test with Heterosigma akashiwo it was > 50 µg/mL.
Turning to `CC1=C(Cc2c(C)cccc2O)C(=O)[C@@](C)(O)[C@H](O)C1`, the MIC in the test with Shigella dysenteriae amounted to 6.25 µg/mL; in the test on Nocardia brasiliensis, 0.39 µg/mL; with Proteus vulgaris, 1.56 µg/mL; in the test on Candida albicans, 3.13 µg/mL; with Vibrio parahaemolyticus, 3.13 µg/mL; in the test on Pseudomonas aeruginosa, 1.56 µg/mL. Besides, the MIC in the test on Escherichia coli was 3.13 µg/mL; in the test on Klebsiella aerogenes it was 1.56 µg/mL; with Bacillus anthracis, 0.39 µg/mL; in [1], 0.39 µg/mL; with Bacillus subtilis it was 1.56 µg/mL; in the test with Salmonella typhi it was 0.19 µg/mL. Further, the MIC in the test with Priestia megaterium came to 0.19 µg/mL; in the test with Bacillus cereus, 0.39 µg/mL; in test [2], 3.13 µg/mL; with Pestalotiopsis calabae, 3.13 µg/mL; in the test with Colletotrichum truncatum, 3.13 µg/mL; in the test with Kocuria rhizophila, 0.39 µg/mL. For the same molecule, the MIC in the test with Micrococcus luteus is 0.78 µg/mL. The EC50 in the test on Tetraselmis helgolandica is 16.8 µg/mL (≈ 60.8 µM); in the test on Karenia mikimotoi, > 50 µg/mL; with Isochrysis galbana it was > 50 µg/mL; with Heterosigma akashiwo, > 50 µg/mL.
Take `O=C(O)c1cn(C2CC2)c2cc(N3CCNCC3)c(F)cc2c1=O` [CIPROFLOXACIN]: the MIC with Shigella dysenteriae came to 0.19 µg/mL; in the test on Nocardia brasiliensis it was 0.19 µg/mL; in the test with Proteus vulgaris it was 0.09 µg/mL; in the test with Vibrio parahaemolyticus it was 0.19 µg/mL; with Pseudomonas aeruginosa, 0.19 µg/mL; with Klebsiella aerogenes, 0.05 µg/mL. Moreover, the MIC in the test with Bacillus anthracis was determined as 0.19 µg/mL; in [1], 0.05 µg/mL; with Bacillus subtilis it was 0.09 µg/mL; with Salmonella typhi it was 0.09 µg/mL; in the test on Priestia megaterium, 0.19 µg/mL; with Bacillus cereus it was 0.09 µg/mL. For the same molecule, the MIC in the test on Kocuria rhizophila and in the test with Micrococcus luteus was 0.19 µg/mL each time.
Consider `CC(=O)N1CCN(c2ccc(OCC3COC(Cn4ccnc4)(c4ccc(Cl)cc4Cl)O3)cc2)CC1` (centres undefined) [KETOCONAZOLE], for which the MIC with Candida albicans came to 0.78 µg/mL; in [2] it was 0.39 µg/mL; in the test with Pestalotiopsis calabae, 0.78 µg/mL; with Colletotrichum truncatum, 0.19 µg/mL.
